Assay results as given in patent publication US20190231893A1, “METHODS OF TREATING CANCER” (priority 2017, published 2019).
Entries after “also recorded” stand apart in the source; their conditions may differ. Square brackets hold non-standard residues; d marks the D form. Peptide text beside a SMILES is read from it. * marks the point of attachment. Dolaproine = CO[C@@H]([C@@H]1CCCN1)[C@@H](C)C(=O)O; Dil = CC[C@H](C)[C@H](NC)[C@@H](CC(=O)O)OC; X1 = C[C@@H](N*)[C@@H](O)c1ccccc1; NMeV = CN[C@H](C(=O)O)C(C)C

Assays:
A431 cells = assay: Drug matrix screen: siRNA knockdown and cell viability; type: cell-based; settings: for shift in drug sensitivity (cell viability) upon siRNA knockdown of γ-tubulin ring complex genes: knockdown of GCNT1, TUBGCP4 and TUBGCP6 relative to CON3 siRNA control, at drug concentrations yielding <60% cell viability; for drug sensitivity / cell killing upon EGFR siRNA knockdown: EGFR siRNA control
Experimental: An siRNA library was produced based targeting genes identified from methods listed above. The siRNA panel in 96 well plates (Dharmacon) was diluted to 66 nM/15 μl was combined with equal volume of RNAiMax Lipofectamine (Life Technologies) diluted to 0.15×/15 μl, pipette mixed thoroughly then allowed to incubate for 15 minutes at room temperature before addition of 30 μl/well to A431, U87MG_del, and U87MG_EGFR cell lines seeded in 96 well plates at 4500 cells/70 μl/well. Plates were incubated in 37° C. 5% CO2 incubator for 18-24 hours prior to addition of 10 μl drug (MMAE: 1.5 nM final conc., depatuxizumab mafodotin: 18 nM final conc.) or vehicle (phosphate-buffered saline, PBS). Cell viability was assessed post 48 hour drug treatment via Cell Titer Glo (Promega) for A431 cell line or SRB cell stain assay (Sulforhodamine B assay and Chemosensitivity, Voigt et al.) for U87MG_del2.7 and U87MG_EGFR cell lines following recommended protocols with the following exception: media was aspirated off Cell Titer Glo (CTG) plates and 100 μl 1:5 diluted CTG in PBS added per well, covered with foil, rotated to mix 15 minutes prior to reading on Victor chemilluminescent reader. The assay was performed using triplicate plates per drug/vehicle as well as last row of plate contained control siRNA CON3 incubated with vehicle to control for any plate effect. Each plate also contained a row of positive and negative siRNA controls treated with drug for normalization of effects of siRNA KD within and across plates. Effect of siRNA KD assessed via combination of triplicate reactions per siRNA/drug normalized to CON3 siRNA/PBS control and then normalized to CON3 siRNA/drug to determine shift to drug with siRNA KD.
A protocol similar to high-throughput screen was used, except siRNA was loaded in a 3×6 well matrix in a 96 well plate with the following siRNAs (CON3, GCNT1, TUBGCP4, TUBGCP6) per quarter plate. EGFR siRNA was loaded in exterior rows as a control. Drug was diluted to 5 serial-5 dilutions (MMAE, Vincristine, Paclitaxel) or 5 serial 3-dilutions (depatuxizumab mafodotin) along with no drug control and added to triplicate wells (starting concentrations MMAE: 100 nM; Vincristine: 2000 nM; Paclitaxel: 2000 nM; depatuxizumab mafodotin: 99 nM).

[1] = system: glioblastoma with EGFR amplification; assay: Phase 1 study M12-356 (NCT01800695), tumor response; type: in vivo, human; settings: patients with EGFR-amplified rGBM; FIG. 1
Experimental: In a Phase 1 study (M12-356, NCT01800695) of depatuxizumab mafodotin in patients with newly diagnosed glioblastoma (nGBM) and recurrent glioblastoma (rGBM) with EGFR amplification, responses in patients with rGBM correlated with EGFR amplification in pre-treatment, archival tumor tissue. Gene amplification was determined by fluorescence in situ hybridization (FISH). Two probes were used: locus-specific EGFR probe and chromosome enumeration probe (CEP) 7. FIG. 1 illustrates change in tumor size in patients with EGFR-amplified rGBM.
Tumor samples for study were from biopsies taken prior to entry onto depatuxizumab mafodotin trial M12-356 (NCT01800695). M12-356 is an open-label, phase 1, 3-arm study: Arm A (depatuxizumab mafodotin+radiation/temozolomide (TMZ) in newly diagnosed GBM; Arm B (depatuxizumab mafodotin+TMZ in newly diagnosed GBM as adjuvant therapy, or in recurrent GBM); and Arm C (depatuxizumab mafodotin monotherapy in recurrent GBM). Arms B and C had and expansion cohort in subjects with centrally confirmed EGFR amplified recurrent GBM.

Row | Molecule | shift in drug sensitivity (cell viability) upon siRNA knockdown of γ-tubulin ring complex genes (A431 cells; FIG. 3) | shift in drug sensitivity (cell viability) upon siRNA knockdown of γ-tubulin ring complex genes (A431 cells; FIG. 3, listed as vincristine) | drug sensitivity / cell killing upon EGFR siRNA knockdown (A431 cells; FIG. 3) | drug sensitivity / cell killing upon EGFR siRNA knockdown (A431 cells; FIG. 3, listed as depatux-m) | shift in drug sensitivity (cell viability) upon siRNA knockdown of γ-tubulin ring complex genes (A431 cells; FIG. 3, listed as depatux-m) | clinical response (change in tumor size) [1]
1 | CC[C@H](C)[C@@H]([C@@H](CC(=O)N1CCC[C@H]1[C@H](OC)[C@@H](C)C(=O)N[C@H](C)[C@@H](O)c1ccccc1)OC)N(C)C(=O)[C@@H](NC(=O)[C@@H](NC)C(C)C)C(C)C [MMAE, monomethyl auristatin E] (H-[NMeV]V[Dil][Dolaproine]-X1) | impacted sensitivity; also recorded: more sensitive; also recorded: increased sensitivity |  |  |  |  | 
2 | CC[C@]1(O)C[C@H]2CN(CCc3c([nH]c4ccccc34)[C@@](C(=O)OC)(c3cc4c(cc3OC)N(C=O)[C@H]3[C@@](O)(C(=O)OC)[C@H](OC(C)=O)[C@]5(CC)C=CCN6CC[C@]43[C@@H]65)C2)C1 [Vincristine] | increased sensitivity | impacted sensitivity; also recorded: more sensitive |  |  |  | 
3 | depatuxizumab mafodotin | increased sensitivity |  | loss of drug sensitivity | abrogated drug internalization and cell killing | impacted sensitivity; also recorded: more sensitive; also recorded: sensitization | not all patients with EGFR amplification responded
4 | CC(=O)O[C@H]1C(=O)[C@@]2(C)[C@H]([C@H](OC(=O)c3ccccc3)[C@]3(O)C[C@H](OC(=O)[C@H](O)[C@@H](NC(=O)c4ccccc4)c4ccccc4)C(C)=C1C3(C)C)[C@]1(OC(C)=O)CO[C@@H]1C[C@@H]2O [Paclitaxel] | no additional shift in sensitivity |  |  |  |  | 
